Patent publication US7816099B1, “Enzyme assay and use thereof” (Myrexis, Inc., priority 2005, dated 2010)

Experiments:
Aurora-A = target: T1, Aurora-A (Homo sapiens, UniProt O14965); assay: High throughput fluorometric assay for the TPX2-stimulated protein kinase activity of Aurora-A; assay type: biochemical; conditions: FIG. 4E; wild type or D274A mutant enzyme at 25 nM or 1.25 μM ADP; 5 μM ATP, 10 mM MgCl2
T1 construct: Aurora-A(101-403) (the latter protein was generated by cleavage of the GST fusion precursor with thrombin); GST (cleaved yes); made in house
T1 sequence (O14965 101-403): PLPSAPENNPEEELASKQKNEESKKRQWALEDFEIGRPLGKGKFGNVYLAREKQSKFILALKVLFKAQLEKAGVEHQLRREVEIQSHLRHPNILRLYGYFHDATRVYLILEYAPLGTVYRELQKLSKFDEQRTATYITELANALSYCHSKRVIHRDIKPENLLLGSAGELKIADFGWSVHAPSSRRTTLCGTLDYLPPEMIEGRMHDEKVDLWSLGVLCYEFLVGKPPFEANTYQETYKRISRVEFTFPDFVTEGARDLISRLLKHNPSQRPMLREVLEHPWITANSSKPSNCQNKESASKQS
T1 sequence (Q9ULW0 1-50 partner limits assumed): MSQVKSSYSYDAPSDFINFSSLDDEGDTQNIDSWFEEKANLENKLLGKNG
Method: High throughput fluorometric assay for the TPX2-stimulated protein kinase activity of Aurora-A. All the experiments were conducted using 50 mM Tris-HCl, pH 7.5, 5 μM ATP, 10 mM MgCl2 as the assay buffer. The data shown on FIGS. 4A and 4B were generated using two-step assay procedure including Aurora-A-catalyzed kinase reaction followed by the assay of ADP produced. All other experiments were performed using single step assay format. FIG. 4A, comparative analysis of kinase activities of the wild type enzyme and D274A mutant protein performed in the absence of TPX-2. FIG. 4B, effects of GST-TPX2(1-50) on kinase activity. FIG. 4C, time course of signal development for the assays conducted using 25 nM kinase in the absence or in the presence of 50 nM GST-TPX2(1-50). The D274A mutant enzyme was used as negative control. FIG. 4D, time dependence of S/B ratio calculated using data shown on FIG. 4C. The background was defined as the fluorescence intensity of the samples supplemented with the mutant Aurora-A. FIG. 4E, inhibition of Aurora-A activity by staurosporine. The assays were performed using wild type or D274A mutant enzyme at 25 nM concentrations or 1.25 μM ADP. FIG. 4F, SDS-PAGE analysis of the recombinant GST-TPX2(1-50) and Aurora-A(101-403) (the latter protein was generated by cleavage of the GST fusion precursor with thrombin).

Mst4 kinase = target: T2, Mst4 kinase (Homo sapiens, UniProt Q9P289); assay: High throughput assay for the Mst4 protein kinase activity; assay type: biochemical; conditions: FIG. 5C; 25 nM protein kinase; 1.25 μM ADP in control samples
T2 construct: SDS-PAGE analysis of GST-Mst4(1-317) purified from bacterial cells; made in house; host or cells: bacterial cells
T2 sequence (Q9P289 1-317): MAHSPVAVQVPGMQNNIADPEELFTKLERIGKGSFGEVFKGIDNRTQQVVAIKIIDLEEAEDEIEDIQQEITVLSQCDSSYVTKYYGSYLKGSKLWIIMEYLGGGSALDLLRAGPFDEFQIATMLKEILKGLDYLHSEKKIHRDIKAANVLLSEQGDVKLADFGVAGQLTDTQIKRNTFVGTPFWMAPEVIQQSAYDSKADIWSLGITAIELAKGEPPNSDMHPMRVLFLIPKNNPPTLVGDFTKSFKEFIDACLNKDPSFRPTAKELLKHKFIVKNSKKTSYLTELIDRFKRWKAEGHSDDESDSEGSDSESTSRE
Method: High throughput assay for the Mst4 protein kinase activity. […] FIG. 5C, inhibition of Mst4 kinase by staurosporine. The assay was performed using 25 nM protein kinase. The combination of Mst4 and ATP was substituted with 1.25 μM ADP in control samples.

For `CN[C@@H]1C[C@H]2O[C@@](C)([C@@H]1OC)n1c3ccccc3c3c4c(c5c6ccccc6n2c5c31)C(=O)NC4` [staurosporine], the “inhibition of Aurora-A activity” value (Aurora-A) was “inhibition” and the “inhibition of Mst4 kinase” value (Mst4 kinase) was “inhibition”.
